Reference: publication PMC2866756 (Antiviral research, 2010)
Read-outs that look alike come from different tables or passages of the source. Marks after values point to notes of the source that are not given here.

Legend:
VZV [1] = experiment: Antiviral assay, VZV yield by infectious focus; assay type: cell-based, Varicella-zoster virus; conditions: for Selective Index: cytotoxic dose divided by the EC50 (plaque assay)
VZV [2] = experiment: Antiviral assay, VZV genome copy number by quantitative PCR; assay type: cell-based, Varicella-zoster virus; conditions: read-out: VZV EC50 (qPCR)
VZV-BAC-Luc [3] = experiment: Skin organ culture; assay type: cell-based, Varicella-zoster virus; conditions: for antiviral effects in SOC compared with cultured HFFs: 2 dpi, same concentrations as in HFFs (EC99 doses); for effect on total flux in skin explants: SOC, EC99 doses: 400 μM acyclovir, 1 mM PAA, 1 mM L-mimosine, 50 μM DRB, 20 μM aphidicolin, 20 μM aloisine A, 20 μM purvalanol A, 25 μM roscovitine
HFFs = conditions: for Cell Growth Arrest Dose: lowest dose for which absorbance at 48 h was the same as at 0 h
VZV-BAC-Luc [4] = assay type: in vivo, Varicella-zoster virus; conditions: for effect on VZV growth rate in vivo: SCID-Hu mice, dose groups combined, 3 experiments
[5] = Tolerability in SCID-Hu mice
skin tissue = conditions: skin organ culture; ref Taylor and Moffat, 2005; cited from earlier work
VZV [6] = experiment: Attempt to isolate roscovitine-resistant VZV by continuous culture; assay type: cell-based, Varicella-zoster virus; conditions: 10 weeks of continuous culture at doses below the EC50, authors' observations
VZV [7] = conditions: ref Taylor et al., 2004; cited from earlier work
[8] = Human alphaherpesvirus 3, MeWo, 48 h, read-out: VZV EC50 (titer)
[9] = 0.7 mg/kg/day, s.c. osmotic pump, 7 days
[10] = 1.5 mg/kg/day, s.c. osmotic pump, 7 days
[11] = 2.8 mg/kg/day, s.c. osmotic pump, 7 days
[12] = 4.3 mg/kg/day, s.c. osmotic pump, 7 days
[13] = read-out: VZV EC50 (titer), HFFs, 48 h, titered on MeWo cells
[14] = HFFs, 48 h, ORF38 copies normalized to β-globin
[15] = subconfluent HFFs, 48 h, fold change less than 1, * = solubility limit

## CC[C@H](CO)Nc1nc(NCc2ccccc2)c2ncn(C(C)C)c2n1 [R-Roscovitine]
VZV [1]; [8]
  EC50: 3.5 µM
VZV [2]; Human alphaherpesvirus 3, 48 h
  EC50: 3 µM

## CCCCc1c(-c2ccc(O)cc2)[nH]c2nccnc12 [Aloisine A]
VZV-BAC-Luc [3]
  antiviral effects in SOC compared with cultured HFFs: much lower
  effect on total flux in skin explants: increased
VZV [1]; [8]
  EC50: 2.5 µM
VZV [1]; Human alphaherpesvirus 3, read-out: EC50 values
  EC50: 2 to 4 µM
VZV [2]; Human alphaherpesvirus 3, 48 h
  EC50: 2 µM
HFFs; HFFs, culture medium at 37°C
  tolerance in Neutral Red assay: tolerated up through the limit of their solubility
HFFs; HFFs
  Cell Growth Arrest Dose: 20 µM

## O=C(O)CP(=O)(O)O [Phosphonoacetic acid (PAA), Phosphonoacetic acid]
VZV [1]; [8]
  EC50: 300 µM
VZV [2]; Human alphaherpesvirus 3, 48 h
  EC50: 500 µM
HFFs; human, 48 h
  Cytotoxic Dose: 15000 µM

## CC[C@H](CO)Nc1nc(NCc2ccccc2)c2ncn(C(C)C)c2n1 (racemic) [Roscovitine (racemic), Roscovitine]
VZV-BAC-Luc [4]; [9]
  Avg. VZV Growth Rate: 0.13 Log10 photons/sec/day
VZV-BAC-Luc [4]; [10]
  Avg. VZV Growth Rate: 0.12 Log10 photons/sec/day
VZV-BAC-Luc [4]; [11]
  Avg. VZV Growth Rate: 0.24 Log10 photons/sec/day
VZV-BAC-Luc [4]; [12]
  Avg. VZV Growth Rate: 0.26 Log10 photons/sec/day
VZV-BAC-Luc [4]
  effect on VZV growth rate in vivo: significantly reduced VZV growth rates
VZV-BAC-Luc [3]
  antiviral effects in SOC compared with cultured HFFs: similar
  effect on total flux in skin explants: reduced the total flux
VZV [1]; [8]
  EC50: 4 µM
[5]; [9]
  Mortality: 0/5
[5]; [10]
  ABWD: −0.10 grams
  Mortality: 0/4
[5]; [11]
  ABWD: −1.60 grams
  Mortality: 0/7
[5]; [12]
  ABWD: 0.36 grams
  Mortality: 0/5
Skin tissue
  cytotoxicity by histopathological analysis of skin tissue: neither DMSO nor roscovitine was cytotoxic
VZV [6]
  isolation of a resistant strain of VZV: failed
VZV [7]
  reversibility of antiviral effect: reversible

## Nc1nc2c(ncn2COCCO)c(=O)[nH]1 [Acyclovir]
VZV [1]; [8]
  EC50: 4 µM
VZV [2]; Human alphaherpesvirus 3, 48 h
  EC50: 5 µM
HFFs
  tolerance in Neutral Red assay: tolerated up through the limit of their solubility
HFFs; human, 48 h
  Cytotoxic Dose: 1.0 × 10^3* μM

## OC[C@H]1O[C@@H](n2cnc3cc(Cl)c(Cl)cc32)[C@H](O)[C@@H]1O [DRB, Dichloro-β-D-ribofurano-sylbenzimidazole]
VZV-BAC-Luc [3]
  antiviral effects in SOC compared with cultured HFFs: similar
  effect on total flux in skin explants: reduced the total flux
VZV [1]; [13]
  EC50: 5 µM
VZV [2]; [14]
  EC50: 2 µM
HFFs; HFFs
  Cell Growth Arrest Dose: 50 µM

## CN[C@@H]1C[C@H]2O[C@@](C)([C@@H]1OC)n1c3ccccc3c3c4c(c5c6ccccc6n2c5c31)C(=O)NC4 [staurosporine]
HFFs; HFFs, 35 nM, positive control for cell death
  live cells after treatment: No live cells were detected

## C[C@@]1(CO)[C@H](O)CC[C@@]2(C)[C@H]1CC[C@H]1C[C@@H]3C[C@@]12CC[C@]3(O)CO [Aphidicolin]
VZV-BAC-Luc [3]
  antiviral effects in SOC compared with cultured HFFs: similar
  effect on total flux in skin explants: reduced the total flux
VZV [1]
  Selective Index: 833
HFFs; HFFs, culture medium at 37°C
  tolerance in Neutral Red assay: tolerated up through the limit of their solubility

## CC(C)[C@H](CO)Nc1nc(Nc2cccc(Cl)c2)c2ncn(C(C)C)c2n1 [Purvalanol A]
VZV-BAC-Luc [4]; 10 mg/kg/day, daily i.p. injection
  Avg. VZV Growth Rate: 0.37 Log10 photons/sec/day
VZV-BAC-Luc [4]
  effect on VZV growth rate in vivo: not effective at reducing the rate of VZV growth
VZV-BAC-Luc [4]; listed as purvalanol A
  effect on VZV growth rate in vivo: No difference
VZV-BAC-Luc [3]
  antiviral effects in SOC compared with cultured HFFs: much lower
  effect on total flux in skin explants: increased
VZV [1]
  Selective Index: 570
[5]; 20 mg/kg/day, daily i.p. injection
  ABWD: −2.96 grams
[5]; i.p. injection, 20 or 10 mg/kg/day
  tolerability in mice: not as well tolerated as roscovitine
HFFs; HFFs
  Cell Growth Arrest Dose: 10 µM
HFFs; [15]
  Cytotoxic Dose: 20 µM

## N[C@@H](Cn1ccc(=O)c(O)c1)C(=O)O [L-mimosine]
VZV-BAC-Luc [3]
  antiviral effects in SOC compared with cultured HFFs: similar
  effect on total flux in skin explants: reduced the total flux
VZV [1]; [8]
  EC50: 70 µM
VZV [1]
  Selective Index: 43
VZV [2]; Human alphaherpesvirus 3, 48 h
  EC50: 50 µM
HFFs; HFFs
  Cell Growth Arrest Dose: 300 µM
HFFs; human, 48 h
  Cytotoxic Dose: 3000 µM

## CC[C@@H](CO)Nc1nc(NCc2ccccc2)c2ncn(C(C)C)c2n1 [S-Roscovitine]
VZV [1]; [13]
  EC50: 2.5 µM
VZV [2]; [14]
  EC50: 1 µM

## C[S+](C)[O-] [DMSO, Dimethylsulfoxide]
VZV [1]; [13]
  EC50: 75000 µM
HFFs; HFFs, 400 mM
  effect on cell growth: inhibited cell growth slightly
HFFs; HFFs, 48 h
  concentration with no effect in Neutral Red assay: up to 150 mM
HFFs; [15]
  Cytotoxic Dose: >400000 µM
